Laboratory results reported in US20080274057A1, “Staudinger Reaction in Imaging and Therapy and Kits for Use in Imaging and Therapy” (KONINKLIJKE PHILIPS ELECTRONICS, N.V., priority 2005, published 2008).
Like-named read-outs stand apart in the source and are kept apart here.

Columns and labels:
A431 cells = conditions: for anti-proliferative activity (ranking): 72 hours incubation, ranking among pro-dox, pro-dox plus phosphine, and doxorubicin
Protocol: 12) Cell proliferation assay using A431 cells with prodrug 9 (pro-dox) in situ activated by triphenylphosphine.
The in vitro anti-cancer activity of prodrug 9 (pro-dox) was assessed by means of cytotoxicity assays. For these cellular experiments the A431 cell line was used. […] The addition of the prodrug in combination with phosphine should lead to a reduction in proliferation compared to the addition of pro-dox without phosphine, due to the release of doxorubicin by means of the staudinger reaction.
Cells were maintained at 37° C. in DMEM (InVitrogen), supplemented with 10% heat-inactivated fetal bovine serum and 0.05% glutamax (InVitrogen) in the presence of penicillin and streptomycin.
Doxorubicin (Toronto Research Chemicals) and pro-dox (9) were, prior to each experiment, freshly dissolved in DMF at 10 mM and subsequently serial diluted in pre-warmed culture medium. Triphenylphosphine-3,3′,3″-trisulfonic acid trisodium salt (Sigma) was dissolved in PBS at 10 mM and serial diluted in pre-warmed medium. Methylthiazolyldiphenyl-tetrazolium bromide, MTT (Sigma) was used as described by the manufacturer.
Cells were plated out in a 96 well plate (Nunc) at a density of 7500 cells/well, followed by addition of reagents the next day. After 72 hours incubation cell proliferation was assessed by means of a MTT assay. Briefly, MTT was dissolved in pre-warmed medium at 5 mg/ml, passed through a 0.22 μm filter and 50 μl was added to each well. Following an incubation period of 120 minutes the medium was gently aspirated. The formed formazan crystals were dissolved in 100 μl DMSO and the absorbance, or optical density (O.D.), was measured with a plate reader (BMG) at 560 nm. The inhibition of proliferation was determined by reporting the O.D. of the treated group (T) with the O.D. of the appropriate control group (C), and expressed as [(1-T/C)×100%].
Therefore, instead of adding the prodrug to the cell culture together with a single batch triphenylphosphine on day 2, the phosphine was added at fixed intervals from day 2 to day 4. Three phosphine dosing schemes were investigated: 5×10 μM, 5×30 μM, and 5×60 μM. The range of the concentrations used for the doxorubicin drugs was 0-0.01-0.1-0.3-1.0-10 μM.
The above phosphine-dosing scheme was compared to a single batch-dosing scheme at the same total amount of phosphine.

[1] = for extent of activation reaction: 10 μM prodrug
Protocol: 11) Activation of the doxorubicin prodrug (9) followed with HPLC and LC-MS
The activation was carried out in the following way: a solution of prodrug in water or growth medium was mixed with a solution of triphenylphosphine-3,3′,3″-trisulfonic acid trisodium salt in water or growth medium. Samples were taken from the reaction mixture (at 37 C) every 2 hours and measured in the HPLC or LCMS. Several different concentrations and ratios prodrug/triphenylphosphine were used. The first activation experiment was done in water with a concentration of 100 μM for the prodrug and 200 μM for the phosphine, and monitored with HPLC.
The second activation was done at a 10-fold lower concentration, 10 μM for the prodrug and 20 μM for the phosphine, and monitored with LCMS.
The third and last activation was done in cell growth medium at 10 μM prodrug. […] During this experiment a fresh portion (60 μM) triphenylphosphine was added to the mixture twice a day.

[2] = Activation of model azido-prodrug 4 by 3-(diphenylphosphino)benzenesulfonate (5), followed with 1H NMR
Protocol: 9) Activation of model azido-prodrug 4-azidobenzyl N-benzyl carbamate (4) by 3-(diphenylphosphino)benzenesulfonate (5) in two different media.
In DMF/H2O (3.5/1): Prodrug 4 (5.3 mg, 18.8 μmol) was dissolved in 952 μl DMF-d7 and 275 μl D2O. Phosphine 5 (12.1 mg, 33.2 μmol) was added and the reaction was followed with ^1H NMR. The reaction had run to completion within 14 hours as judged from the disappearance of the CH2 azidobenzyl signal at 4.83 ppm and the appearance of the CH2 signal of the corresponding aminobenzylalcohol (7) at 4.64 ppm.
In THF/H2O (1/1): Prodrug 4 (4.8 mg, 17.0 μmol) was dissolved in 275 μl THF-d8 and 275 μl D2O. Phosphine 5 (11.3 mg, 31.0 μmol) was added to the slightly yellow solution after which gas development was observed. The reaction was followed with ^1H NMR and had to run to 50% after 7 hours as judged from the disappearance of the CH2 benzyl signal at 4.38 ppm and the appearance of the CH2 signal of the corresponding free benzylamine (6) at 3.99 ppm.

| Compound | anti-proliferative activity (ranking) (A431 cells; MTT) | increase of activity over pro-dox alone (A431 cells; 72 hours, MTT, pro-dox with 60 μM repetitive dose (5×60 μM) of phosphine) | activation by a single dose of phosphine compared with sequential additions (A431 cells; identical total phosphine amounts) | extent of activation reaction ([1]; 20 μM phosphine, after 24 hours, LCMS) | extent of activation reaction ([1]; cell growth medium, fresh 60 μM triphenylphosphine added twice a day, after 8 hours) | time until reaction was complete ([1]; water, 37 C, 100 μM prodrug, 200 μM phosphine, HPLC) | doxorubicin formed ([1]; water, 37 C, 100 μM prodrug, 200 μM phosphine, after 8 hours, HPLC) | activity relative to pro-dox (A431 cells; 72 hours, MTT) | time until reaction had run to completion ([2]; DMF/H2O (3.5/1), prodrug 18.8 μmol, phosphine 5 33.2 μmol) | extent of reaction (release of free benzylamine) ([2]; THF/H2O (1/1), after 7 hours, prodrug 17.0 μmol, phosphine 5 31.0 μmol) |
| --- | --- | --- | --- | --- | --- | --- | --- | --- | --- | --- |
| Azidobenzyl carbamate Doxorubicin [prodrug 9] | lowest anti-proliferative activity | 33 fold | not nearly as effective | approximately 30% | 85% | 20 h | 15% |  |  |  |
| COc1cccc2c1C(=O)c1c(O)c3c(c(O)c1C2=O)C[C@@](O)(C(=O)CO)C[C@@H]3O[C@H]1C[C@H](N)[C@H](O)[C@H](C)O1 [Doxorubicin, reference compound] | highest activity |  |  |  |  |  |  | 2 orders of magnitude |  |  |
| [N-]=[N+]=Nc1ccc(COC(=O)NCc2ccccc2)cc1 [prodrug 4, 4-azidobenzyl N-benzyl carbamate] |  |  |  |  |  |  |  |  | ≤ 14 h | 50% |
